This passage reports IC50 results from US20140323478A1, “SERINE/THREONINE KINASE INHIBITORS” (Afraxis Holdings, Inc., priority 2013, published 2014).

Broadly, the IC50 is the concentration that gives 50% inhibition.

In this assay the target is T1, human recombinant PAK1-KD protein (Homo sapiens, UniProt Q13153).
T1 construct: made in house; host or cells: Tini [sic] cells infected with recombinant baculovirus
T1 sequence (Q13153 270-521 limits assumed): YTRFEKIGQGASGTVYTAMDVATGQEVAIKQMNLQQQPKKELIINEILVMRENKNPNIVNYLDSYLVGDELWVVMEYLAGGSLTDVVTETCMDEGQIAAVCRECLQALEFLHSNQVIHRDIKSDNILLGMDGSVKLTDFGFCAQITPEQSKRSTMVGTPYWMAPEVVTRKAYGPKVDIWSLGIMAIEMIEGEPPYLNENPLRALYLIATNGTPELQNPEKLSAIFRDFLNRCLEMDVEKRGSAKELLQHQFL
The assay can be described thus: PAK1-KD (kinase domain) IC50 Zlyte assay. It counts as biochemical. The conditions noted are these: Z'-LYTE FRET peptide substrate (Ser/Thr19), 60-minute incubation at 22° C. From the text: Determination of the activity of PAK activity of a compound of formula I was accomplished using the PAK1 inhibition assay in Biological Example 1.
PAK1-KD (Kinase Domain) IC50 Zlyte Assay Protocol
Activity of human recombinant PAK1-KD protein may be assessed in vitro by assay of the phosphorylation of a FRET peptide substrate. Catalytically active human recombinant PAK1-KD protein is obtained by purification from Tini cells infected with a human PAK1-KD recombinant baculovirus expression vector.
The activity/inhibition of PAK1-KD was estimated by measuring the phosphorylation of a FRET peptide substrate (Ser/Thr19) labeled with Coumarin and Fluorescein using Z′-LYTE™ assay (Invitrogen). The peptide substrate is a consensus sequence (KKRNRRLSVA) based on various PAK substrates reported in the scientific literature. The 10 μL assay mixtures contained 50 mM HEPES (pH 7.5), 0.01% Brij-35, 10 mM MgCl2, 1 mM EGTA, 2 μM FRET peptide substrate, and 20 pM PAK1-KD. Incubations were carried out at 22° C. in black polypropylene 384-well plates (Corning Costar). […] Following the 60-minute incubation, the assay mixtures were quenched by the addition of 5 μL of Z′-LYTE™ development reagent, and 1 hour later the emissions of coumarin (445 nm) and fluorescein (520 nm) were determined after excitation at 400 nm using an Envision plate reader (Perkin Elmer). An emission ratio (445 nm/520 nm) was determined to quantify the degree of substrate phosphorylation.
With `CCn1c(=O)c(-c2ccccc2S(C)(=O)=O)cc2cnc(NCCC3CCN(C)CC3)nc21` [Compound I-1, 8-Ethyl-2-((2-(1-methylpiperidin-4-yl)ethyl)amino)-6-(2-(methylsulfonyl)phenyl)pyrido[2,3-d]pyrimidin-7(8H)-one], the concentration for half-maximal inhibition (IC50) was > 4.5 µM.

Take `CCn1c(=O)c(-c2ccc([S+]([O-])C3CC3)cc2)cc2cnc(NCCC3CCN(C)CC3)nc21` (centres unmarked) [Compound I-12, 6-(4-cyclopropylsulfinylphenyl)-8-ethyl-2-[2-(1-methyl-4-piperidyl)ethylamino]pyrido[2,3-d]pyrimidin-7-one]: the IC50 came out at 0.874 µM. In the case of `CCn1c(=O)c(-c2cccc(S(C)(=O)=O)c2)cc2cnc(NCCC3CCN(C)CC3)nc21` [Compound I-4, 8-ethyl-2-[2-(1-methyl-4-piperidyl)ethylamino]-6-(3-methylsulfonylphenyl)pyrido[2,3-d]pyrimidin-7-one] it was 1.4 µM; in that of `CCn1c(=O)c(-c2ccc(S(C)(=O)=O)cc2)cc2cnc(N[C@H]3[C@@H]4CNC[C@@H]43)nc21` [Compound I-10, 2-[[(1R,5S)-3-azabicyclo[3.1.0]hexan-6-yl]amino]-8-ethyl-6-(4-methylsulfonylphenyl)pyrido[2,3-d]pyrimidin-7-one], > 4.5 µM. To `CCNc1ncc2cc(-c3cccc(S(C)(=O)=O)c3)c(=O)n(CC)c2n1` [Compound I-3, 8-Ethyl-2-(ethylamino)-6-(3-methylsulfonylphenyl)pyrido[2,3-d]pyrimidin-7-one] belongs > 4.5 µM; to `CCN1CCC(CCNc2ncc3cc(-c4ccc(S(C)(=O)=O)cc4)c(=O)n(CC)c3n2)CC1` [Compound I-6, 8-ethyl-2-[2-(1-ethyl-4-piperidyl)ethylamino]-6-(4-methylsulfonylphenyl)pyrido[2,3-d]pyrimidin-7-one], > 4.5 µM. As for `CCNc1ncc2cc(-c3ccc(S(C)(=O)=O)cc3Cl)c(=O)n(C[C@H]3CC[C@H](N)CC3)c2n1` [Compound I-14, 8-(((1R,4R)-4-aminocyclohexyl)methyl)-6-(2-chloro-4-(methylsulfonyl)phenyl)-2-(ethylamino)pyrido[2,3-d]pyrimidin-7(8H)-one], the 50% inhibitory concentration (IC50) was 0.175 µM.

For the compound `CCN1CCC(CCNc2ncc3cc(-c4ccccc4S(C)(=O)=O)c(=O)n(CC)c3n2)CC1` [Compound I-5, 8-ethyl-2-[2-(1-ethyl-4-piperidyl)ethylamino]-6-(2-methylsulfonylphenyl)pyrido[2,3-d]pyrimidin-7-one], the IC50 is > 4.5 µM. For the compound `CCn1c(=O)c(-c2ccc(S(=O)(=O)C3CC3)cc2)cc2cnc(NCCC3CCN(C)CC3)nc21` [Compound I-9, 6-(4-cyclopropylsulfonylphenyl)-8-ethyl-2-[2-(1-methyl-4-piperidyl)ethylamino]pyrido[2,3-d]pyrimidin-7-one], the IC50 is 3 µM. In the case of `CCN1CCC(CCNc2ncc3cc(-c4cccc(S(C)(=O)=O)c4)c(=O)n(CC)c3n2)CC1` [Compound I-2, 8-ethyl-2-[2-(1-ethyl-4-piperidyl)ethylamino]-6-(3-methylsulfonylphenyl)pyrido[2,3-d]pyrimidin-7-one] it was 1.7 µM. To `CCn1c(=O)c(-c2ccc(S(C)(=O)=O)nc2)cc2cnc(NCCC3CCN(C)CC3)nc21` [Compound I-11, 8-ethyl-2-[2-(1-methyl-4-piperidyl)ethylamino]-6-(6-methylsulfonyl-3-pyridyl)pyrido[2,3-d]pyrimidin-7-one] belongs 3.5 µM; to `CCn1c(=O)c(-c2ccc([S+](C)[O-])cc2)cc2cnc(NCCC3CCN(C)CC3)nc21` (centres unmarked) [Compound I-8, 8-ethyl-2-[2-(1-methyl-4-piperidyl)ethylamino]-6-(4-methylsulfinylphenyl)pyrido[2,3-d]pyrimidin-7-one], > 4.5 µM.

`CCn1c(=O)c(-c2ccc(S(C)(=O)=O)cc2)cc2cnc(NCCC3CCN(C)CC3)nc21` [Compound I-7, 8-ethyl-2-[2-(1-methyl-4-piperidyl)ethylamino]-6-(4-methylsulfonylphenyl)pyrido[2,3-d]pyrimidin-7-one]: the IC50 was > 4.5 µM.

As to `CCn1c(=O)c(-c2ccc(S(=O)(=O)C3CC3)cc2Cl)cc2cnc(NCCC3CCN(C)CC3)nc21` [Compound I-13, 6-(2-chloro-4-cyclopropylsulfonyl-phenyl)-8-ethyl-2-[2-(1-methyl-4-piperidyl)ethylamino]pyrido[2,3-d]pyrimidin-7-one], the concentration for half-maximal inhibition (IC50) was 0.0683 µM.
